Experimental data as given in PMC10797628.

Tests used:
human 5-HT1B receptor [1] = target: T1, human 5-HT1B receptor (Homo sapiens, UniProt P28222); assay: cAMP accumulation (LANCE Ultra TR-FRET) in HEK293T cells, WT 5-HT1B; type: cell-based; conditions: for 5-HT1B EMAX (%) / Emax: normalized to basal (0%) and 10 μM 5-CT (100%); for EC50: 5-HT1B pEC50, WT receptor; for Emax: HEK-293T, read-out: 5-HT1B EMAX (%), WT receptor
T1 construct: host or cells: HEK293T
Description: (§1) Briefly, cells transfected with the desired receptor construct and compounds were incubated in the dark for 90 min at 37 °C. After incubation, cAMP detection reagents were added, and TR-FRET was used to quantify the cAMP produced.
(§2) The functional activity of compounds was determined by stimulating cells expressing the desired receptor with FSK and test compound in parallel with 12 known concentrations of cAMP. The known concentrations of cAMP were used to create a standard curve for each experiment that was used to interpolate the unknown values of cAMP in wells with test compounds. […] The EC50 and EMAX values were determined using the “dose response – log[agonist] vs response (three parameter)” nonlinear regression model in Prism and transformed to pEC50 values, reported as mean ± SD.
(§3) Summary of functional assay conditions at various 5-HT1 receptor point mutation constructs.

S5.42A 5-HT1B receptor = S5.42A 5-HT1B receptor (Homo sapiens, UniProt P28222, S212A); assay: cAMP accumulation in HEK293T cells, S5.42A 5-HT1B; type: cell-based; design: host or cells: HEK293T; conditions: point-mutated receptor, 3 independent experiments
S5.42A 5-HT1B receptor, sequence (P28222 whole entry S212A): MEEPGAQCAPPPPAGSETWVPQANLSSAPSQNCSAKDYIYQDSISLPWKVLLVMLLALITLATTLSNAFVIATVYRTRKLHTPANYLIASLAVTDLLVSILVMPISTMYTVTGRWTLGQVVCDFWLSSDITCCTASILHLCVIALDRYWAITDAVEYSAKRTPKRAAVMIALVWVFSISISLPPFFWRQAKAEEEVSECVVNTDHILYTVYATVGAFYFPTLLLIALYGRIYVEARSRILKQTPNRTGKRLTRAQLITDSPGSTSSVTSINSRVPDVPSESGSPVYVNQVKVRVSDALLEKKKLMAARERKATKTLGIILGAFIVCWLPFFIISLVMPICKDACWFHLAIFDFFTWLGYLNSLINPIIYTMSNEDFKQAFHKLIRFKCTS
Description: as §1, §2
Cell Type Receptor Cell Density [Forskolin] Incubation time
as §3

human 5-HT1D receptor [2] = target: T2, human 5-HT1D receptor (Homo sapiens, UniProt P28221); assay: cAMP accumulation (LANCE Ultra TR-FRET) in HEK293T cells, WT 5-HT1D; type: cell-based; conditions: for 5-HT1D EMAX (%): WT receptor; for 5-HT1D EMAX (%) / Emax: normalized to basal (0%) and 10 μM 5-CT (100%); for EC50: 5-HT1D pEC50, WT receptor, cAMP accumulation, HEKt cells, mean ± SD; for Emax: HEK-293T, read-out: 5-HT1D EMAX (%), WT receptor
T2 construct: host or cells: HEK293T
T2 sequence (P28221 whole entry): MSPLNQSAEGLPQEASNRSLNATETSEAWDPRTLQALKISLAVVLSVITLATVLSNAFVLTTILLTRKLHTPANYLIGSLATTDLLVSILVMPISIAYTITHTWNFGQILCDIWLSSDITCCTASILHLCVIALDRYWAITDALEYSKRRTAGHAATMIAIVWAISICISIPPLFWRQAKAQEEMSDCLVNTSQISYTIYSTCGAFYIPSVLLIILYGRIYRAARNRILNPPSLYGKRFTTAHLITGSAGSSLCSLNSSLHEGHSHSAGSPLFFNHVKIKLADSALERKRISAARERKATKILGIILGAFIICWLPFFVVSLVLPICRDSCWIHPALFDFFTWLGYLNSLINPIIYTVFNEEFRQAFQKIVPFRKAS
Description: as §1, §2, §3

human 5-HT1D receptor [3] = target: T2, human 5-HT1D receptor; assay: Radioligand binding (saturation and competition), WT 5-HT1D; conditions: Affinity (pKi ± SD) 5-HT1D, WT receptor; [^3H]5-CT competition; mean ± SD
human 5-HT1A receptor [4] = target: T3, human 5-HT1A receptor (Homo sapiens, UniProt P08908); assay: cAMP accumulation (LANCE Ultra TR-FRET) in HEK293T cells, WT 5-HT1A; type: cell-based; conditions: for EC50: 5-HT1A pEC50, WT receptor, cAMP accumulation, HEKt cells, mean ± SD; for Emax: HEK-293T, read-out: 5-HT1A EMAX (%), WT receptor
T3 construct: host or cells: HEK293T
T3 sequence (P08908 1-422): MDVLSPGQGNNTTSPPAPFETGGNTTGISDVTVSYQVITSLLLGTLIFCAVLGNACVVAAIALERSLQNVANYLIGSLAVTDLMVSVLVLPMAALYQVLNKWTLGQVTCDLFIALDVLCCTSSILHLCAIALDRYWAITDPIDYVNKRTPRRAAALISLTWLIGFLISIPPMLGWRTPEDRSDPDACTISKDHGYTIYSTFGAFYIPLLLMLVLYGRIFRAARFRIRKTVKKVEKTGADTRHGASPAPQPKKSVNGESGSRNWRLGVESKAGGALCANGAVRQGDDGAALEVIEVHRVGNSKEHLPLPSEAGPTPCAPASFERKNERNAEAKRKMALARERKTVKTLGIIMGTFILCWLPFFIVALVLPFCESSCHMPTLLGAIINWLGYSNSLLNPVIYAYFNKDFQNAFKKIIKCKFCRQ
Description: as §1, §2, §3

human 5-HT1A receptor [5] = target: T3, human 5-HT1A receptor; assay: Radioligand binding (saturation and competition), WT 5-HT1A; conditions: WT receptor, [^3H]5-CT competition, mean ± SD; for Ki: Affinity (pKi ± SD) 5-HT1A
human 5-HT1F receptor = target: T4, human 5-HT1F receptor (Homo sapiens, UniProt P30939); assay: Radioligand binding (saturation and competition), WT 5-HT1F
T4 construct: host or cells: HEK293T
T4 sequence (P30939 1-366): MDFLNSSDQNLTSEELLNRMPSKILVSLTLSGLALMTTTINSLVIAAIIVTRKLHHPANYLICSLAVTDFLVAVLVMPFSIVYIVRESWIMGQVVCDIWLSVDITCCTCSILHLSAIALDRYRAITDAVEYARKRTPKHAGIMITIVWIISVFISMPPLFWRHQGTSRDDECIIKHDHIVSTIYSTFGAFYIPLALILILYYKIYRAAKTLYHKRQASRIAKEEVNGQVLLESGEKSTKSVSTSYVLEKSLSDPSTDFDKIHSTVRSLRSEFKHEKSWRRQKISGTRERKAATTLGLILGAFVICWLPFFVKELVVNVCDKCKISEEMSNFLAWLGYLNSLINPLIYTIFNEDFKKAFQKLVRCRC

human 5-HT1B receptor [6] = target: T1, human 5-HT1B receptor; assay: Radioligand binding (saturation and competition), WT 5-HT1B; conditions: Affinity (pKi ± SD) 5-HT1B, WT receptor; [^3H]5-CT competition; mean ± SD
[7] = cAMP accumulation, HEKt cells, mean ± SD
[8] = normalized to basal (0%) and 10 μM 5-CT (100%)

T1 sequence (P28222 whole entry): as the sequence (P28222 whole entry S212A) above, with A212S counted along it

| SMILES | 5-HT1B pEC50 (human 5-HT1B receptor [1]; WT receptor, cAMP accumulation, HEKt cells, mean ± SD) | 5-HT1B EMAX (%) (human 5-HT1B receptor [1]; WT receptor) | change in potency (qualitative) (S5.42A 5-HT1B receptor) | 5-HT1D EMAX (%) (human 5-HT1D receptor [2]) | Ki (human 5-HT1D receptor [3]) [nM] | EC50 (human 5-HT1B receptor [1]; [7]) [nM] | Emax (human 5-HT1B receptor [1]) [%] | EC50 (human 5-HT1A receptor [4]) [nM] | Emax (human 5-HT1A receptor [4]; [8]) [%] | Affinity (pKi ± SD) 5-HT1A (human 5-HT1A receptor [5]) | EC50 (human 5-HT1D receptor [2]) [nM] | Emax (human 5-HT1D receptor [2]) [%] | Ki (human 5-HT1F receptor) [nM] | Ki (human 5-HT1B receptor [6]) [nM] | 5-HT1A EMAX (%) (human 5-HT1A receptor [4]; WT receptor, normalized to basal (0%) and 10 μM 5-CT (100%)) | Ki (human 5-HT1A receptor [5]) [nM] |
| --- | --- | --- | --- | --- | --- | --- | --- | --- | --- | --- | --- | --- | --- | --- | --- | --- |
| NCCc1c[nH]c2ccc(C(N)=O)cc12 [5-CT, 5-carboxamidotryptamine, reference compound] | 8.46 ± 0.18 | 100 ± 1 | significant reduction | 101 ± 1 | – | – | – | – | – | – | – | – | – | – | – | – |
| CN(C)[C@H]1CCc2c(cccc2-c2ccco2)C1 [(S)-FAT] | – | – | – | – | 11.7 | 117 | 102 ± 3 | 490 | 92 ± 4 | 7.48 ± 0.06 | 12 | 100 ± 2 | 9330 | 132 | – | – |
| CN(C)[C@H]1CCc2c(cccc2-c2cccn2C)C1 [(S)-NMP] | – | 54 ± 5 | – | 66 ± 6 | 3.98 | 11.2 | – | 27.5 | < 85 | – | 8.32 | < 85 | > 10000 | 5.75 | 70 ± 5 | 20.4 |
| CN(C)[C@H]1CCc2c(cccc2-c2cccs2)C1 [(S)-TAT] | – | – | – | – | 1.7 | 15.8 | 85 ± 4 | 23.4 | 91 ± 3 | – | 41.7 | 60 ± 3 | > 10000 | 6.31 | – | 6.17 |
